EC50 data for one molecule are collected here from US9447083B2, “N-acylhydrazone derivatives for selective T cell inhibitor and anti-lymphoid malignancy drug” (CHONG KUN DANG PHARMACEUTICAL CORP., priority 2012, dated 2016).

In this test the test system is KMS11. Briefly: Apoptosis of lymphoid malignancy cell lines: KMS11. As to conditions: Homo sapiens, KMS-11; KMS11, Multiple myeloma, 24 hours; read-out: Administration Dose (mean ± SD, μmol/L) Lethal Dose 50 (Apoptosis). Format: cell-based. As to the method:
Each of the acute T cell leukemia cell lines Jurkat, Molt4 and CCRF-CEM, the acute B cell leukemia cell line Raji and the […] cell lines KMS11, KMS12BM, KMS26, KMS28BM, and IM9 was re-suspended in 10% FBS-containing RPMI medium at a concentration of 1.5×10^5 cells/mL, and 200 μL of each of the cell suspensions was cultured in a flat bottom 96-well plate (Costar). The acute NK cell lymphoma cell line NK-92MI was re-suspended in α-MEM medium (supplemented with 20% FBS, 1×MEM vitamine solution, 50 μM 2-mercaptoethanol and 1× penicillin/streptomycin) at a concentration of 1.5×10^5 cells/mL, and 200 μL of the cell suspension was cultured in a flat bottom 96-well plate. The cells in each well was treated with 10 μL of each of 0.1, 0.25, 0.5, 0.75 and 1 μM of the compound diluted with RPMI medium, followed by that the cells were incubated in a 5% CO2 incubator at 37° C. for 24 hours. […]
The cells were collected, and then the apoptosis thereof was analyzed by a flow cytometer after staining with Annexin V-7-AAD. The incubated cells were collected, placed in a 5-mL FACS tube (BD Falcon) and washed with 1 mL of fluorescence activated cell sorting (FACS) buffer (1%. FBS and 0.1% sodium azaide in PBS). […] The stained cells were suspended in 0.3 mL of FACS buffer, and then analyzed by a flow cytometer. […]

In the case of `Cc1cc(C)c(OCC(=O)N/N=C/c2ccc3cc[nH]c3c2)c(C2CCOC2)c1` (stereo not shown) [Compound 229, (E)-N′-((1H-indol-6-yl)methylene)-2-(2,4-dimethyl-6-(tetrahydrofuran-3-yl)phenoxy)acetohydrazide], the EC50 stood at 0.35 ± 0.09 µmol/L.
